Laboratory results: US20050255568A1, “Methods and compositions for amino acid production” (priority 2003, published 2005)

Tests used:
C. glutamicum MetA = molecular target: T1, C. glutamicum MetA (Corynebacterium glutamicum, UniProt O68640); format: biochemical
T1 construct: crude protein extracts derived from C. glutamicum strains MA-442 and MA-449 which contain both endogenous and episomal C. glutamicum MetA and MetY genes; expressed in transfected cells; host or cells: C. glutamicum MA-442 (MA-428 derivative of ATCC 13032) carrying episomal plasmid MB-4135 (lacIQ-trcRBS, C. glutamicum metA-RBS-metY, both wild type); crude extract
T1 sequence (O68640 1-377): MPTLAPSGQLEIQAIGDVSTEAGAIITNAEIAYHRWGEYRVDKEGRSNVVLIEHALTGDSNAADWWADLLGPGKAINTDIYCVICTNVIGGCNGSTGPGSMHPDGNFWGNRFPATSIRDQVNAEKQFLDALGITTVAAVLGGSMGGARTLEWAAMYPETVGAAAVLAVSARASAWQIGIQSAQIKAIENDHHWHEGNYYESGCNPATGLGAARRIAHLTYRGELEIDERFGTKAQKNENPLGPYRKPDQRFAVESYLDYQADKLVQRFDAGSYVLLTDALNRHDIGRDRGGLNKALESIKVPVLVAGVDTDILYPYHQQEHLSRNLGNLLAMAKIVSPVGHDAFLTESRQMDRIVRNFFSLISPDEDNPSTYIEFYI
Method: MetA activity in C. glutamicum expressing endogenous and episomal metA genes was determined. MetA activity was assayed in crude protein extracts using a protocol described by Kredich and Tomkins (J. Biol. Chem.241(21):4955-4965, 1966). […] Briefly, 1 μg of protein extract was added to a microtiter plate. Reaction mix (250 μl; 100 mM tris-HCl pH 7.5, 2mM 5,5′-Dithiobis(2-nitrobenzoic acid) (DTN), 2 mM sodium EDTA, 2 mM acetyl CoA, 2 mM homoserine) was added to each well of the microtiter plate. In the course of the reactions, MetA activity liberates CoA from acetyl-CoA. A disulfide interchange occurs between the CoA and DTN to produce thionitrobenzoic acid. The production of thionitrobenzoic acid is followed spectrophotometrically. Absorbance at 412 nm was measured every 5 minutes over a period of 30 minutes. A well without protein extract was included as a control. […] Inhibitors were added directly to the reaction mix before it was added to the protein extract. […] Experiments were performed in the presence and absence of IPTG that induces expression of the plasmid borne MetA and MetY genes.

[1] = molecular target: T2, O-Acetylhomoserine sulfhydrylase (MetY) (Corynebacterium glutamicum, UniProt Q79VI4); conditions: cited from earlier work
T2 sequence (Q79VI4 1-437): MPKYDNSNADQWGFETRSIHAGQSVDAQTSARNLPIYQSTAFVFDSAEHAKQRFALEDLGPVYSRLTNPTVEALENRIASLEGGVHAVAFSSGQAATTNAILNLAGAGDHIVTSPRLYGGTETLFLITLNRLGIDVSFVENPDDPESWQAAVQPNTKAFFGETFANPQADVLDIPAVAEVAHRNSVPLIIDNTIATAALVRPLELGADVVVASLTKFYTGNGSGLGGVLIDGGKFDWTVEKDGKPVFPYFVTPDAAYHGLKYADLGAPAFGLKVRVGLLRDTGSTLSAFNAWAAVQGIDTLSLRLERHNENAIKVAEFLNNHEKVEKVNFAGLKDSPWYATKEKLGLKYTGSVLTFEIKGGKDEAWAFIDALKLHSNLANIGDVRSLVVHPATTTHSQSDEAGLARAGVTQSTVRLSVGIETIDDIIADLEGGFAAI

## CSCC[C@H](N)C(=O)O [methionine]
C. glutamicum MetA; 5 mM methionine
  MetA activity of MA-442 extracts in the presence of methionine: reduced
[1]; 0.5 mM methionine, combined allosteric regulation and repression
  reduction in MetY enzyme activity: 99%
[1]
  MetY enzyme activity (in words): inhibited

## C[S+](CC[C@H](N)C(=O)[O-])C[C@H]1O[C@@H](n2cnc3c(N)ncnc32)[C@H](O)[C@@H]1O (stereo partly drawn) [S-AM, S-adenosyl methionine]
C. glutamicum MetA; 0.2 mM S-AM
  MetA activity of MA-442 extracts in the presence of S-AM: reduced

## CC(=O)OC[C@H](N)C(=O)O [O-acetylserine]
[1]
  MetY enzyme activity (in words): inhibited

## N[C@@H](CCO)C(=O)O [homoserine]
[1]
  MetY enzyme activity (in words): inhibited
